The values that follow come from patent US7655669B2, “Pyrimidineamide derivatives and the use thereof” (Novartis AG, priority 2002, dated 2010).

The target in one experiment is T1, p210 Bcr-Abl (Homo sapiens, UniProt P00519).
T1 construct: expressed in transfected cells; host or cells: murine myeloid progenitor cell line 32Dcl3 (32D-bcr/abl), from J. Griffin; the other entry of the earlier key: BCR (P11274, Breakpoint cluster region protein)
In words: Test for activity against Bcr-Abl (Bcr-Abl phosphorylation ELISA in 32D-bcr/abl cells). It counts as cell-based. Particulars: expressed as a range within which individual IC50 measurements fall. An excerpt:
Test for activity against Bcr-Abl. The murine myeloid progenitor cell line 32Dcl3 transfected with the p210 Bcr-Abl expression vector pGDp210Bcr/Abl (32D-bcr/abl) was obtained from J. Griffin (Dana Faber Cancer Institute, Boston, Mass., USA). The cells express the fusion Bcr-Abl protein with a constitutively active Abl kinase and proliferate growth factor independent. […] After thawing, the cells are used during maximally 10-12 passages for the experiments.
For cellular assays, compounds are dissolved in DMSO and diluted with complete medium to yield a starting concentration of 10 μM followed by preparation of serial 3-fold dilutions in complete medium. 200,000 32D-Bcr/Abl cells in 50 μL complete medium are seeded per well in 96 well round bottom tissue culture plates. 50 μL per well of serial 3-fold dilutions of the test compound are added to the cells in triplicates. Untreated cells are used as control. The compound is incubated together with the cells for 90 min at 37° C., 5% CO2, followed by centrifugation of the tissue culture plates at 1300 rpm (Beckman GPR centrifuge) and removal of the supernatants by careful aspiration taking care not to remove any of the pelleted cells. The cell pellets are lysed by addition of 150 μL lysis buffer (50 mM Tris/HCl, pH 7.4, 150 mM sodium chloride, 5 mM EDTA, 1 mM EGTA, 1% NP-40, 2 mM sodium ortho-vanadate, 1 mM PMSF, 50 μg/mL aprotinin and 80 μg/mL leupeptin) and either used immediately for the ELISA or stored frozen in the plates at −20° C. until usage.
After washing 3 times with 200 μL/well PBS containing 0.05% Tween20 (PBST) and 0.5% TopBlock (Juro), residual protein binding sites are blocked with 200 μL/well PBST, 3% TopBlock for 4 h at room temperature followed by incubation with 50 μL lysates of untreated or compound-treated cells (20 μg total protein per well) for 3-4 h at 4° C. After 3 washings, 50 μL/well anti-phosphotyrosine Ab PY20(AP) labeled with alkaline phosphatase (Zymed) diluted to 0.2 μg/mL in blocking buffer is added and incubated over night (4° C.). For all incubation steps the plates are covered with plate sealers (Costar). Finally, the plates are washed another three times with washing buffer and once with deionized water before addition of 90 μL/well of the AP-substrate CDPStar RTU with Emerald II. The plates, now sealed with Packard TopSeal™-A plate sealers, are incubated for 45 min at room temperature in the dark and luminescence is quantified by measuring counts per second (CPS) with a Packard Top Count Microplate Scintillation Counter (Top Count).
The difference between the ELISA-readout (CPS) obtained for with the lysates of the untreated 32D-Bcr/Abl cells and the readout for the assay-background (all components, but without cell lysate) is calculated and taken as 100% reflecting the constitutively phosphorylated Bcr-Abl protein present in these cells. The activity of the compound on the Bcr-Abl kinase activity is expressed as percent reduction of the Bcr-Abl phosphorylation. The values for the IC50 and IC90 are determined from the dose response curves by graphical extrapolation.
(In general: ELISA stands for enzyme-linked immunosorbent assay.)

Experiment [1] concerns the target T2, c-Abl protein tyrosine kinase (Homo sapiens, UniProt P00519).
T2 construct: The His-tagged kinase domain of c-Abl is cloned and expressed in the baculovirus/Sf9 system; His; made in house; host or cells: baculovirus/Sf9
T2 sequence (P00519 242-493 limits assumed): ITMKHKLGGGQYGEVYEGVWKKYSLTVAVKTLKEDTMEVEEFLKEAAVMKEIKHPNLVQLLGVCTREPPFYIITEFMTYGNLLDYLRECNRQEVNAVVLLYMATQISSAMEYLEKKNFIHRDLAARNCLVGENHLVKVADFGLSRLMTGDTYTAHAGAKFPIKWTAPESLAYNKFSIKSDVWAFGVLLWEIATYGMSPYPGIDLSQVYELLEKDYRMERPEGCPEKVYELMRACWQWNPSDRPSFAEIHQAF
The experiment can be described thus: Test for activity against c-Abl protein tyrosine kinase (filter binding assay). It counts as biochemical. The following applies: expressed as a range within which individual IC50 measurements fall. As to the method:
Test for activity against c-Abl protein tyrosine kinase. […] The assay contains: c-Abl kinase (50 ng), 20 mM Tris-HCl, pH 7.5, 10 mM MgCl2, 10 μM Na3VO4, 1 mM DTT and 0.06 μCi/assay [γ^33P]-ATP (5 μM ATP) using 30 μg/mL poly-Ala,Glu,Lys,Tyr-6:2:5:1 (Poly-AEKY, Sigma P1152) in the presence of 1% DMSO, total volume of 30 μL. Reactions are terminated by adding 10 μL of 250 mM EDTA, and 30 μL of the reaction mixture is transferred onto Immobilon-PVDF membrane (Millipore, Bedford, Mass., USA) previously soaked for 5 min with methanol, rinsed with water, then soaked for 5 min with 0.5% H3PO4 and mounted on vacuum manifold with disconnected vacuum source. After spotting all samples, vacuum is connected and each well rinsed with 200 μL 0.5% H3PO4. Membranes are removed and washed on a shaker with 0.5% H3PO4 (4 times) and once with ethanol. Membranes are counted after drying at ambient temperature, mounting in Packard TopCount 96-well frame, and addition of 10 μL/well of Microscint™ (Packard).

T1 sequence (P00519 28-1130 limits assumed): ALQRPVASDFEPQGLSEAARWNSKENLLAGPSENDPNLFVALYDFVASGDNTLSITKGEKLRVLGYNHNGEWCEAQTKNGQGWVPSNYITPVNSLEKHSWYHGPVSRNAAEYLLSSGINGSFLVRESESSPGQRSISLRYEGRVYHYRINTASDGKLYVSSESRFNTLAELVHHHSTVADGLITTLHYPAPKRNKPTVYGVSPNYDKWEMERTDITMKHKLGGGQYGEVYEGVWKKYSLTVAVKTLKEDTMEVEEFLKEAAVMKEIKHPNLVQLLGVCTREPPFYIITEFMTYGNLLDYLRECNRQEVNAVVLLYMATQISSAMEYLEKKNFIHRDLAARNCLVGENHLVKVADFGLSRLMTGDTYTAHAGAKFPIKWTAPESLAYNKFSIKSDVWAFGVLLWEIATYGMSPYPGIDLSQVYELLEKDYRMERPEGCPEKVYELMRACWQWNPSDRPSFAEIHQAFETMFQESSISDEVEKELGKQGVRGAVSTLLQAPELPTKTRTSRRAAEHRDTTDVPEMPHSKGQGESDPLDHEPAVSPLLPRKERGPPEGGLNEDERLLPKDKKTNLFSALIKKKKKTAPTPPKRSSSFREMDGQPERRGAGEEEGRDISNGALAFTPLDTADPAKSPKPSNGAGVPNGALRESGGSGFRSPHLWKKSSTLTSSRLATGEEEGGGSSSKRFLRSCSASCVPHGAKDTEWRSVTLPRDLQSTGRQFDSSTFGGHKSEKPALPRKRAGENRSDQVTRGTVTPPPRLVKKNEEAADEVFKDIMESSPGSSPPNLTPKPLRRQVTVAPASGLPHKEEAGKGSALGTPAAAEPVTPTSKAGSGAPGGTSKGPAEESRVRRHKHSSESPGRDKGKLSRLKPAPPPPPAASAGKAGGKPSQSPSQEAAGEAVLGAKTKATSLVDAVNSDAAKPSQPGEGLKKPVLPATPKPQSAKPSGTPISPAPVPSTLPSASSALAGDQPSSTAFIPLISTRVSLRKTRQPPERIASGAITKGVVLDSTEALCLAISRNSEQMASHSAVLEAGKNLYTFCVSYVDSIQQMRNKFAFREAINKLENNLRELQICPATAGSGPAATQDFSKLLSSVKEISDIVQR

As usually defined, the IC50 is the midpoint of a concentration-inhibition curve. Lower therefore signals higher potency. Consider `CCN(CC)c1ccc(C(=O)Nc2ccc(C)c(Nc3nccc(-c4cccnc4)n3)c2)cc1C(F)(F)F` [Example 1, 4-Diethylamino-N-[4-methyl-3-[[4-(3-pyridinyl)-2-pyrimidinyl]amino]phenyl]-3-(trifluoromethyl)-benzamide], for which the results for the concentration for half-maximal inhibition (IC50) (against p210 Bcr-Abl; in experiment [1]) were 200 to 500 nM and 50 to 100 nM, respectively.

In the case of `Cc1ccc(NC(=O)c2ccc(N3CCCC3)c(C(F)(F)F)c2)cc1Nc1nccc(-c2cccnc2)n1` [Example 2, N-[4-Methyl-3-[[4-(3-pyridinyl)-2-pyrimidinyl]amino]phenyl]-4-(1-pyrrolidinyl)-3-(trifluoromethyl)-benzamide], the IC50 is 100 to 300 nM against p210 Bcr-Abl and 10 to 60 nM in experiment [1].

Consider `Cc1ccc(NC(=O)c2ccc(N3CCOCC3)c(C(F)(F)F)c2)cc1Nc1nccc(-c2cccnc2)n1` [Example 3, N-[4-Methyl-3-[[4-(3-pyridinyl)-2-pyrimidinyl]amino]phenyl]-4-(4-morpholinyl)-3 (trifluoromethyl)-benzamide], for which the IC50 against p210 Bcr-Abl is 20 to 100 nM; in experiment [1] it was 40 to 100 nM.

As for `Cc1ccc(NC(=O)c2ccc(N3CCCCC3)c(C(F)(F)F)c2)cc1Nc1nccc(-c2cccnc2)n1` [Example 4, N-[4-Methyl-3-[[4-(3-pyridinyl)-2-pyrimidinyl]amino]phenyl]-4-(1-piperidinyl)-3-(trifluoromethyl)-benzamide], the IC50 was 80 to 200 nM against p210 Bcr-Abl and 60 to 110 nM in experiment [1].

Regarding `Cc1ccc(NC(=O)c2ccc(N3CCN(C)CC3)c(C(F)(F)F)c2)cc1Nc1nccc(-c2cccnc2)n1` [Example 5, 4-(4-Methyl-1-piperazinyl)-N-[4-methyl-3-[[4-(3-pyridinyl)-2-pyrimidinyl]amino]phenyl]-3-(trifluoromethyl)-benzamide], the concentration for half-maximal inhibition (IC50) at p210 Bcr-Abl was in the range of 30 to 100 nM; in experiment [1], 5 to 50 nM.

With `Cc1ccc(NC(=O)c2ccc(-n3ccnc3)c(C(F)(F)F)c2)cc1Nc1nccc(-c2cccnc2)n1` [Example 6, 4-(1H-Imidazol-1-yl)-N-[4-methyl-3-[[4-(3-pyridinyl)-2-pyrimidinyl]amino]phenyl]-3-(trifluoromethyl)-benzamide], the 50% inhibitory concentration (IC50) against p210 Bcr-Abl is 10 to 50 nM; in experiment [1] it was 5 to 20 nM.

Consider `Cc1ccc(NC(=O)c2ccc(-n3ccnc3C)c(C(F)(F)F)c2)cc1Nc1nccc(-c2cccnc2)n1` [Example 7, 4-(2-Methyl-1H-imidazol-1-yl)-N-[4-methyl-3-[[4-(3-pyridinyl)-2-pyrimidinyl]amino]phenyl]-3-(trifluoromethyl)-benzamide], for which the IC50 lay within 10 to 50 nM against p210 Bcr-Abl and 5 to 20 nM in experiment [1].

Take `Cc1cn(-c2ccc(C(=O)Nc3ccc(C)c(Nc4nccc(-c5cccnc5)n4)c3)cc2C(F)(F)F)cn1` [Example 8, 4-(4-Methyl-1H-imidazol-1-yl)-N-[4-methyl-3-[[4-(3-pyridinyl)-2-pyrimidinyl]amino]phenyl]-3-(trifluoromethyl)-benzamide]: the IC50 at p210 Bcr-Abl was in the range of 10 to 50 nM; in experiment [1], 5 to 20 nM.

Consider `Cc1cn(-c2ccc(C(=O)Nc3ccc(C)c(Nc4nccc(-c5cccnc5)n4)c3)cc2C(F)(F)F)c(C)n1` [Example 9, 4-(2,4-Dimethyl-1H-imidazol-1-yl)-N-[4-methyl-3-[[4-(3-pyridinyl)-2-pyrimidinyl]amino]phenyl]-3-(trifluoromethyl)-benzamide], for which the values for the 50% inhibitory concentration (IC50) (against p210 Bcr-Abl; in experiment [1]) were 20 to 80 nM and 5 to 20 nM, respectively.

Consider `Cc1ccc(NC(=O)c2cc(-n3ccnc3)cc(C(F)(F)F)c2)cc1Nc1nccc(-c2cccnc2)n1` [Example 10, 3-(1H-Imidazol-1-yl)-N-[4-methyl-3-[[4-(3-pyridinyl)-2-pyrimidinyl]amino]phenyl]-5-(trifluoromethyl)-benzamide], for which the IC50 lay within 10 to 50 nM against p210 Bcr-Abl and 5 to 20 nM in experiment [1].

On to `Cc1ccc(NC(=O)c2cc(-n3ccnc3C)cc(C(F)(F)F)c2)cc1Nc1nccc(-c2cccnc2)n1` [Example 11, 3-(2-Methyl-1H-imidazol-1-yl)-N-[4-methyl-3-[[4-(3-pyridinyl)-2-pyrimidinyl]amino]phenyl]-5-(trifluoromethyl)-benzamide], for which the half-inhibitory concentration (IC50) against p210 Bcr-Abl lay in the range of 10 to 50 nM; in experiment [1] it was 5 to 20 nM.

With `Cc1cn(-c2cc(C(=O)Nc3ccc(C)c(Nc4nccc(-c5cccnc5)n4)c3)cc(C(F)(F)F)c2)cn1` [Example 12, 3-(4-Methyl-1H-imidazol-1-yl)-N-[4-methyl-3-[4-(3-pyridinyl)-2-pyrimidinyl]amino]phenyl-5-(trifluoromethyl)-benzamide], the figures for the 50% inhibitory concentration (IC50) (against p210 Bcr-Abl; in experiment [1]) were 10 to 50 nM and 5 to 20 nM, respectively.

On to `Cc1ccc(NC(=O)c2cc(N3CCOCC3)cc(C(F)(F)F)c2)cc1Nc1nccc(-c2cccnc2)n1` [Example 13, N-[4-Methyl-3-[[4-(3-pyridinyl)-2-pyrimidinyl]amino]phenyl]-3-(4-morpholinyl)-5-(trifluoromethyl)-benzamide], for which the IC50 on p210 Bcr-Abl fell in the range of 20 to 80 nM; in experiment [1], 5 to 20 nM.

With `Cc1ccc(NC(=O)c2cc(N3CCN(C)CC3)cc(C(F)(F)F)c2)cc1Nc1nccc(-c2cccnc2)n1` [Example 14, 3-(4-Methyl-1-piperazinyl)-N-[4-methyl-3-[[4-(3-pyridinyl)-2-pyrimidinyl]amino]phenyl]-5-(trifluoromethyl)-benzamide], the values for the IC50 (on p210 Bcr-Abl; in experiment [1]) were 30 to 180 nM and 5 to 20 nM, respectively.

As to `Cc1ccc(NC(=O)c2ccc(N(C)CCN(C)C)c(C(F)(F)F)c2)cc1Nc1nccc(-c2cccnc2)n1` [Example 15, 4-[[2-(Dimethylamino)ethyl]methylamino]-N-[4-methyl-3-[[4-(3-pyridinyl)-2-Pyrimidinyl]amino]phenyl]-3-(trifluoromethyl)-benzamide], the concentration for half-maximal inhibition (IC50) against p210 Bcr-Abl was 50 to 200 nM; in experiment [1], 5 to 20 nM.

Regarding `Cc1ccc(NC(=O)c2ccc(N(C)C3CCN(C)CC3)c(C(F)(F)F)c2)cc1Nc1nccc(-c2cccnc2)n1` [Example 16, 4-[Methyl-(1-methyl-4-piperidinyl)amino]-N-[4-methyl-3-[[4-(3-Pyridinyl)-2-pyrimidinyl]amino]phenyl]-3-(trifluoromethyl)-benzamide], the IC50 against p210 Bcr-Abl was in the range of 50 to 200 nM; in experiment [1] it was 5 to 20 nM.

Consider `CCNc1cc(C(=O)Nc2ccc(C)c(Nc3nccc(-c4cccnc4)n3)c2)cc(C(F)(F)F)c1` [Example 17], for which the half-inhibitory concentration (IC50) against p210 Bcr-Abl fell in the range of 20 to 60 nM; in experiment [1] it was 10 to 70 nM.

As to `CC(=O)Nc1cc(C(=O)Nc2ccc(C)c(Nc3nccc(-c4cccnc4)n3)c2)cc(C(F)(F)F)c1` [Example 18, 3-Acetylamino-N-[4-methyl-3-[[4-(3-pyridinyl)-2-pyrimidinyl]amino]phenyl]-5-(trifluoromethyl)-benzamide], inhibition against p210 Bcr-Abl was half-maximal at 13 nM (IC50).
